Reference: paper PMC12040169 (PLOS Biology, 2025)

Assay: in vitro
Conditions: human, hela cells, % viability

| SMILES | viability at 28.5 h, 10 µM |
| --- | --- |
| Cc1nc2cccnc2n1CCNC(=O)c1cccc(Cl)c1 [CBK283593] | 97.9% |
| Nc1ncnc2c1nc(SCc1ccccc1)n2Cc1ccccc1 [CBK288181] | 90.9% |
| O=C(Nc1ccc(Cc2ccc(O)c(NC(=O)c3ccccc3F)c2)cc1O)c1ccccc1F [CBK265766] | 85.4% |
| COc1ccc(F)c(CN(CC(C)(C)CN)C(=O)Nc2ccc(C(C)(C)C)cc2)c1 [CBK002461C] | 94% |
| Cc1cccc(N2NC(=O)/C(=C/c3cccn3-c3ccc(S(N)(=O)=O)cc3)C2=O)c1 [CBK265660] | 93.9% |
| CCC(=O)NCCc1c[nH]c2ccc([N+](=O)[O-])cc12 [CBK088059] | 110% |
| CCCCNC(=O)OC1CCN(CCc2ccccc2)CC1 [CBK022839C] | 89.2% |
| O=C(CN1C(=O)C2CCC(c3ccccc3)CC2C1=O)Nc1cccc2ccccc12 (stereo not drawn) [CBK268061] | 86% |
| O=C(CCn1cnnn1)Nc1cc(C(F)(F)F)ccc1Cl [CBK270127] | 91.4% |
| Cc1nc2c(ccc3nc(NC(=O)c4ccccc4)sc32)s1 [CBK287560] | 91.7% |
| Cc1ccc(C(CC(=O)O)NC(=O)c2ccc(C)c(S(=O)(=O)N3CCCCC3)c2)cc1 (stereo not drawn) [CBK297095] | 82.7% |
| O=C(NCC1(c2ccccc2)CCCC1)c1ccc(=O)n(CC(=O)N2CCCCC2)c1 [CBK286082] | 93.5% |
| O=C(Nc1sc2c(c1C(=O)O)CCC2)c1cccs1 [CBK152437] | 95.2% |
| Cn1ccnc1CN(Cc1ccccc1)C1CC(C)(C)NC(C)(C)C1 [CBK283177] | 93.2% |
| Cc1c(C(=O)N2CCOCC2)sc2nc(-c3ccc(Cl)cc3)nn12 [CBK010863] | 91.4% |
| CC(C)CC(NC(=O)c1cccnc1)c1nnc2n1CCNCC2 (stereo not drawn) [CBK307149] | 89.2% |
| CC(C)(C)c1ccccc1NC(=O)N(CCN)Cc1cc(F)cc(F)c1 [CBK046263C] | 98.6% |
| Fc1ccc(CNc2cncc(-c3cc4ccccc4o3)n2)cc1 [CBK066005] | 122% |
| Cn1cc(-c2nc(C(=O)NCC3CCN(c4ccccc4)C3)cs2)cn1 (stereo not drawn) [CBK305633] | 84.8% |
| C[C@H](Nc1nc(-c2ccoc2)cnc1N)c1ccccc1 [CBK063707] | 105% |
| Clc1cccc(CNc2cncc(-c3cccnc3)n2)c1 [CBK065283] | 104% |
| O=C(O)C1C2C=CC(C2)C1C(=O)NCc1ccco1 (stereo not drawn) [CBK265453] | 92.7% |

| SMILES | viability at 28.5 h, 10 µM |
| --- | --- |
| Cn1cc(CCNC(=O)NC2CCN(c3ncccn3)CC2)cn1 [CBK305612] | 104% |
| Fc1ccc(OCCCCCN2CCC3(CC2)OCCc2c3[nH]c3ccccc23)cc1 [CBK113516T] | 2.48% |
| O=C(O)CCc1nnc(S)n1Cc1ccccc1 [CBK286926] | 93.8% |
| FC(F)(F)c1cccnc1OCCNc1ccccc1 [CBK115822] | 98.7% |
| O=C(c1ccc(F)cc1)c1cn(CCO)c2c(Cl)nccc12 [CBK285129] | 106% |
| OCCN(CCO)c1nccnc1-c1ccccc1F [CBK036610] | 106% |
| COc1cccc(COc2cncc(N3CCNCC3)n2)c1OC [CBK200003] | 98.6% |
| Clc1cccc(-c2cn3ccnc3c(NCc3cccnc3)n2)c1 [CBK066237] | 104% |
| Cc1nc(C)c(C(=O)N2CCCc3ccccc32)s1 [CBK200345] | 112% |
| O=C(O)c1ccccc1NC1SC(=O)N(c2ccccc2)C1=O (stereo not drawn) [CBK261078] | 93.7% |
| Cc1ccc(C(=O)NC(C)c2nc3ccccc3n2Cc2ccc(C(=O)O)o2)cc1 (stereo not drawn) [CBK295159] | 107% |
| COc1nc(OC)nc(OC2=CC(=O)CC(C)(C)C2)n1 [CBK020772] | 95.5% |
| O=C(O)c1cccc(N2C(=O)c3cccc4c(Cl)ccc(c34)C2=O)c1 [CBK299836] | 90.3% |
| O=[N+]([O-])c1cccc(-c2cc(NCCc3ccccn3)ncn2)c1 [CBK091087] | 96.7% |
| CC(Nc1ccc(N2CCOCC2)cc1)C(=O)Nc1cccc(C#N)c1 (stereo not drawn) [CBK305846] | 82.2% |
| CCOC(=O)c1c(NC(=O)Cn2nc([N+](=O)[O-])c(Cl)c2C)sc2c1CCC(C)C2 (stereo not drawn) [CBK263054] | 94.2% |
| CC(C)(CN(Cc1ccccc1)C(=O)/C=C/c1ccccc1)NC(=O)OC(C)(C)C [CBK003266] | 91.2% |
| Cc1cc(NC(=O)COc2ccc(Cl)cc2)nc2c1c(=O)oc1ccccc12 [CBK291230] | 92.9% |
| O=S(=O)(c1cccc2nonc12)N1CCCCCC1 [CBK265627] | 102% |
| Cc1cc2c(s1)c1cnn(CC(=O)NC3CCCC3)c(=O)c1n2C [CBK284189] | 84.2% |
| COc1ccc(S(=O)(=O)N2CCN(C(=O)c3cc(-c4ccncc4)nc4ccc(Br)cc34)CC2)cc1 [CBK267750] | 101% |
| CCCCNc1cc(N(C)Cc2cnn(C)c2)nc(N)n1 [CBK304167] | 62.6% |

| SMILES | viability at 28.5 h, 10 µM |
| --- | --- |
| O=C(NCc1cn2ccccc2n1)c1ccc(C2SCCS2)cc1 [CBK295167] | 83.5% |
| O=C1CC(c2cccnc2)=NN1c1ccc(Cl)cc1Cl [CBK067764] | 97.7% |
| O=C(Nc1c(F)cc(F)cc1OC1CCNCC1)c1cnccn1 [CBK050273T] | 100% |
| Cc1cccc(-n2c(CCc3ccccc3)nnc2SCC(=O)c2ccccc2)c1 [CBK266369] | 94% |
| O=C(CSc1ccc2nnc(-c3ccc(F)cc3)n2n1)N1CCCC1 [CBK287519] | 85.3% |
| COc1cccc(NC(=O)C(=O)NCCCO)c1 [CBK262095] | 89.6% |
| Cn1nc(CN2CCNC(=O)C2c2ccccc2C(F)(F)F)[nH]c1=O (stereo not drawn) [CBK306269] | 91.3% |
| COC(=O)c1sccc1NS(=O)(=O)c1ccc(C(F)(F)F)cc1[N+](=O)[O-] [CBK004510] | 92.9% |
| CC1CCN(S(=O)(=O)c2cccc(C(=O)NNC(=O)c3cccc([N+](=O)[O-])c3)c2)CC1 [CBK266774] | 98% |
| CC1CCc2c(sc(NC(=O)c3ccccc3)c2CN2CCCC2)C1 (stereo not drawn) [CBK265908] | 98.7% |
| COc1cc(C(=O)Nc2cc(-c3nc4ncccc4o3)ccc2C)ccc1OCc1ccc(Cl)cc1 [CBK264704] | 112% |
| Cc1nc2ccccc2n1CC(=O)NCCN1CCCC1 [CBK267336] | 113% |
| NNC(=O)CCc1ccccc1O [CBK261214] | 97.2% |
| O=C(Cc1cccc(F)c1)N1CCOCC1 [CBK058928] | 83.9% |
| c1cncc(CN2CCCC(OCc3nc(-c4ccncc4)no3)C2)c1 (stereo not drawn) [CBK288621] | 114% |
| CCOC(=O)CNS(=O)(=O)c1ccc(F)cc1 [CBK034442] | 92.3% |
| Cc1c(C)[n+]([O-])c2cc(N3CCN(C)CC3)c(Cl)cc2[n+]1[O-] [CBK263503] | 96.3% |
| O=[N+]([O-])c1ccc(Sc2cccc(F)c2)nc1 [CBK002905] | 103% |
| O=C(O)CSc1c[nH]c2ccccc12 [CBK026377] | 93.9% |
| O=C(c1ccc2c(c1)OCO2)N1CCN(C/C=C/c2ccccc2)CC1 [CBK262639] | 105% |
| OCc1ccccc1-c1cncc(NCC2CCOCC2)n1 [CBK037309] | 113% |
| Cc1cc(/C=N/NC(=O)C(=O)NCc2ccccn2)c(C)n1-c1cccc(Br)c1 [CBK263815] | 93.2% |

| SMILES | viability at 28.5 h, 10 µM |
| --- | --- |
| CCN(Cc1ccncc1)C(=O)NCc1cnc(C)cn1 [CBK155128] | 105% |
| O/N=C/c1c[nH]c2ccccc12 [CBK168630] | 102% |
| Sc1nnc(CSCc2ccccc2Cl)n1-c1ccccc1 [CBK265219] | 100% |
| O=C(Nc1ccncc1)c1cc2cc(OC(F)(F)F)ccc2[nH]1 [CBK107369] | 89.3% |
| C[N+]1([O-])CCN(c2nccn(CCOc3cc(F)c(F)cc3F)c2=O)CC1 [CBK081593] | 101% |
| O=C(O)CC1C(=O)NCCN1Cc1c(F)cccc1Cl (stereo not drawn) [CBK287157] | 88.6% |
| CCN1CCN(c2ccc(NC(=O)c3cc(-n4cnnc4)ccc3Cl)cc2Cl)CC1 [CBK269343] | 88.1% |
| COc1cccc(CN2CCN(CCc3ccccc3)CC2)c1 [CBK126454] | 90.5% |
| c1ccc2c(c1)CCCN2c1ncnc2n[nH]cc12 [CBK287886] | 69.3% |
| O=c1[nH]c(NCc2ccccc2)nc2c1CCCC2 [CBK307423] | 89.9% |
| COc1cccc(/C=C2/SC(=S)N(C)C2=O)c1OCCCOc1ccc(C)cc1C [CBK264446] | 102% |
| COc1cccc(CC(=O)Nc2nc(Cc3n[nH]c(=S)n3C)cs2)c1 [CBK296634] | 98.5% |
| CC1=NN(c2ccc(S(N)(=O)=O)cc2)C(=O)/C1=C\c1ccc(-c2ccc(S(N)(=O)=O)cc2)o1 [CBK263476] | 97.4% |
| CCOC(=O)c1cnc(SC)nc1NCCc1c[nH]c2cc(F)ccc12 [CBK092315] | 96% |
| O=C(CNS(=O)(=O)c1ccc(F)cc1)N1CCOCC1 [CBK042214] | 97.7% |
| O=C(Cc1cc(F)c(F)c(F)c1)NCCc1c[nH]c2ccc(Cl)cc12 [CBK159768] | 112% |
| Nc1nc(SCC(=O)c2ccc3c(c2)OCCO3)n[nH]1 [CBK266554] | 107% |
| O=C(Nc1ccccc1C(=O)NCCCc1nc2ccccc2[nH]1)c1cccs1 [CBK296641] | 107% |
| COc1ccc(NC(=O)CSc2cc(-n3cccn3)ncn2)cc1 [CBK287819] | 116% |
| O=C(Nc1ccc(Br)cc1C(=O)O)c1ccc2c(c1)C(=O)N(Cc1cccnc1)C2=O [CBK266776] | 96.7% |
| Clc1ccc(COc2nccnc2OCc2cccnc2)cc1Cl [CBK161597] | 85% |
| O=C(O)c1cccnc1SC1CC(=O)N(Cc2ccccc2)C1=O (stereo not drawn) [CBK263375] | 119% |

Same assay, conditions: human, hela cells, % viability, bulk resorufin, single well

| SMILES | viability at 28.5 h, 10 µM |
| --- | --- |
| O=C(Nc1cccc(Cl)c1)N1CCC2(CC1)OCc1cc(F)ccc1O2 [CBK060722] | 87.5% |
| CS(=O)(=O)c1ccc(-c2ccc3c(c2)COC2(CCN(C(=O)CC4CCCCC4)CC2)O3)cc1 [CBK160589] | 96.7% |
